Common to all, as to format: functional, cell-based
The test system of one test is A549. Kind of test: In vitro cytotoxicity against human non-small cell lung carcinoma A549.
For another test, the system named is A121. Kind of test: In vitro cytotoxicity against human ovarian carcinoma […].
The test system of the next test is HT-29. Briefly: In vitro cytotoxicity against human colon carcinoma HT-29.
Test [1] deals with MCF7. Briefly: In vitro cytotoxicity against human mammary carcinoma cells 180 fold resistant to adriamycin MCF7-R.
Test [2] concerns MCF7. Kind of test: In vitro cytotoxicity against human mammary carcinoma MCF-7.

Molecules are shown by their SMILES.

Usually IC50 stands for the point on the concentration scale where inhibition reaches its midpoint. Lower therefore signals greater potency.

With `CC(=O)O[C@@]12CO[C@@H]1C[C@H](O)[C@@]1(C)C(=O)[C@H](O)C3=C(C)[C@@H](O)[C@H](OC(=O)[C@@H](O)C(NC(=O)OC(C)(C)C)c4ccccc4)[C@@](O)([C@@H](OC(=O)c4ccccc4)C12)C3(C)C` (some centres not stated), the IC50 in the test on A549 is 0.031 µM; in the test with A121, 0.08 µM; in the test on HT-29, 0.05 µM; in the test with MCF7 [1], over 1 µM; with MCF7 [2], 0.026 µM.
On to `CC(=O)O[C@@]12CO[C@@H]1C[C@H](O)[C@@]1(C)C(=O)[C@H](O)C3=C(C)[C@@H](O)[C@H](OC(=O)[C@@H](O)C(NC(=O)c4ccccc4)c4ccccc4)[C@@](O)([C@@H](OC(=O)c4ccccc4)C12)C3(C)C` (some centres not stated), for which the half-maximal inhibitory concentration (IC50) in the test on A549 was 0.512 µM; with A121 it was 1.04 µM; in the test with HT-29 it was 0.248 µM; with MCF7 [1], over 1 µM; with MCF7 [2] it was 0.269 µM.
On to `CC(=O)O[C@@]12CO[C@@H]1C[C@H](O)[C@@]1(C)C(=O)[C@H](O)C3=C(C)[C@@H](OC(=O)[C@H](O)[C@@H](NC(=O)c4ccccc4)c4ccccc4)[C@@H]4OC(=O)O[C@]4([C@@H](OC(=O)c4ccccc4)C12)C3(C)C` (some centres not stated), for which the concentration for half-maximal inhibition (IC50) is 0.033 µM in the test on A549; 0.105 µM with A121; 0.024 µM in the test on HT-29; over 1 µM with MCF7 [1]; 0.011 µM with MCF7 [2].
In the case of `CC(=O)O[C@H]1C(=O)[C@@]2(C)[C@H]([C@H](OC(=O)c3ccccc3)[C@]3(O)C[C@H](OC(=O)[C@H](O)[C@@H](NC(=O)c4ccccc4)c4ccccc4)C(C)=C1C3(C)C)[C@]1(OC(C)=O)CO[C@@H]1C[C@@H]2O` [PACLITAXEL], the values for the concentration for half-maximal inhibition (IC50) in the test on A121 and with HT-29 were 0.0061 µM and 0.0032 µM, respectively.
For `CC(=O)O[C@@]12CO[C@@H]1C[C@H](O)[C@@]1(C)C(=O)[C@H](O)C3=C(C)[C@@H](OC(=O)[C@H](O)[C@@H](NC(=O)OC(C)(C)C)c4ccccc4)[C@@H]4OC(=O)O[C@]4([C@@H](OC(=O)c4ccccc4)C12)C3(C)C` (some centres not stated), the 50% inhibitory concentration (IC50) in the test on A549 turned out to be 0.0021 µM; with A121, 0.0062 µM; in the test with HT-29, 0.0018 µM; in the test with MCF7 [1], 0.543 µM; in the test with MCF7 [2] it was 0.0018 µM.

The values are drawn from ChEMBL document CHEMBL1127505, “Structure-activity relationships of new taxoids derived from 14 beta-hydroxy-10-deacetylbaccatin III” (J Med Chem, 1994).
